Laboratory results: US4902686A, “Tricyclic heterocyclic compounds and their use in treating benzodiazepin receptor-related ailments” (A/S Ferrosan, priority 1987, dated 1990)

Test system: benzodiazepine receptors
Test: in vivo displacement of 3H-flunitrazepam from brain benzodiazepine receptors in mice
Parameters: species or system mice (female, NMR)
Conditions: i.p. test substance 15 min before 3H-flunitrazepam i.v., dose reducing specific forebrain binding to 50% of control
Excerpt: The pharmaceutical properties of the compounds of the invention can be illustrated by determining their capability for displacing radioactive labelled flunitrazepam from benzodiazepine receptors.
The displacement activity of the compounds of the invention may be found by determining the ED50 value. The ED50 value represents the dose (mg/kg) of a test substance which causes the specific binding of flunitrazepam to benzodiazepine receptors in a living brain to be reduced to 50% of the control value.
Such an in vivo test is carried out as follows:
Principle. Twenty minutes after a dose of ^3 H-flunitrazepam (^3 H-FNM) (200μCi/kg, i.v.) the amount of specific ^3 H-FNM binding to brain benzodiazepine receptors has reached its maximal value.
Test procedure. Suspensions of test substances (2 mg/ml) are prepared in 5% Duphasol-X (TM Duphar, castor oil-ethylene oxide derivative for emulsifying and solubilizing oil and other water-insoluble substances) by sonification for 10 min using a Branson B15 microtip ultrasonifier (setting 7). Groups of three mice (female, NMR, 18-22 grams) are injected with the test substance at 100 mg/kg intraperitoneally. Fifteen minutes after test substance administration the mice are challenged with 4 μCi intravenously of ^3 H-FNM (70-90 Ci/mole) in 200 μl physiological saline. Twenty minutes after ^3 H-FNM administration mice are sacrificed by decapitation, the forebrains rapidly excised (within 30 sec) and homogenized in 12 ml of icecold 25 mM KH2 PO4, pH 7.1, using an Ultra-Turrax homogenizer fitted with an N 10 shaft. Two aliquots of 1 ml are immediately filtered through Whatman GF/C glassfibre filters and washed with 2×5 ml of the above mentioned buffer. The amounts of radioactivity on the filters are determined by conventional scintillation counting. One group of untreated mice serves as control. One to three mice are injected with 25 μg/kg clonazepam i.p. 30 minutes before ^3 H-FNM to determine the amount of non-specific ^3 H-FNM binding, which should be between 8-15% of total binding. When doses of 100 mg/kg inhibit more than 50% of specific ^3 H-flunitrazepam binding; test substances are administered in doses, which are factors of 3.16 times lower than 100 mg/kg. The ED50 for a test substance is defined as that dose which inhibits 50% of specific ^3 H-FNM binding. Specific binding is the amount of binding in controls minus the amount binding in clonazepam-treated mice.
Results. The ED50 value is determined from dose response curves. If only one dose of test substance is administered the ED50 value is calculated as follows, provided that the inhibition of specific binding is within the range of 25-75%: [formula] where Co is specific binding in controls and Cx is specific binding in mice treated with test substance.

Cn1c(=O)c2c(-c3nc(C4CC4)no3)ncn2c2cccnc21
in vivo bind. ED50: 0.9 mg/kg

Cc1nc(-c2ncn3c4cccc(C#C[Si](C)(C)C)c4c(=O)n(C)c23)no1 [4,5-Dihydro-4-methyl-3-(5-methyl-1,2,4-oxadiazol-3-yl)-5-oxo-6-trimethylsilylethynyl-imidazo(1,5-a)quinazoline]
in vivo bind. ED50: 3.7 mg/kg

CCn1c(=O)c2c(-c3noc(C4CC4)n3)ncn2c2cccnc21
in vivo bind. ED50: 0.7 mg/kg

Cn1c(=O)c2c(Oc3ccc(F)cc3)cccc2n2cnc(-c3noc(C4CC4)n3)c12
in vivo bind. ED50: 2.9 mg/kg

CCn1c(=O)c2c(-c3nc(C4CC4)no3)ncn2c2ccccc21
in vivo bind. ED50: 1.4 mg/kg
